The target of assay [1] is T1, BACE1 (Homo sapiens (Human), UniProt P56817). In words: BACE1 FP assay. It is filed as biochemical. The note with it: pH 4.5. The protocol:
(§1) BACE1 activity can be assessed in an AlphaScreen® assay. Compounds to be assessed (e.g. compounds as described in the above examples) are serially diluted 1:4 in DMSO, then plated by diluting 10 μL of compound with 40 μl of assay buffer (1×PBS, 0.01% Tween-20, pH 7.0, 0.05% BSA). The diluted compound is transferred (4 μL per well) to a 386 well assay plate and 4 μL of BACE1 enzyme ([…]) is added and incubated for 15 minutes. This assay uses a probe that is a BACE1 binding sight ligand linked to biotin, which can be displaced by test compound dependent on compound binding affinity. This of biotinylated probe (4 μL) is added and incubated for 1 hour, followed with 4 μL of donor and acceptor bead mixture and incubated for 2 hours. The fluorescent signal is read on a plate reader and the value as a function of compound concentration is used to determine the IC50. Compounds are also assessed for BACE1 and Cathepsin D activity using an FP Assay. Compounds to be assessed (e.g. compounds as described in the above examples) are serially diluted 1:3 with DMSO and each concentration point is transferred to a 96 well plate, 6 μL per well, followed by addition of 194 μL of assay buffer (100 mM sodium acetate, pH 4.5 with 0.001% Tween-20). A 10 μL compound sample from this plate is transferred to a well of a 384 well plate and combined with 10 μL per well of BACE1 enzyme (0.3 nM in assay buffer) or Cathepsin D enzyme (1.8 nM in assay buffer) and the plate is incubated at room temperature for 30 minutes.

Assay [2] relates to BACE1 inhibition in HEKp293 cells transfected with APP751 gene (SWE293). In words: SWE293 cellular assay: reduction of Aβ peptide production, ELISA. The note with it: Homo sapiens, read-out: SWE293 ED50. It is filed as cell-based. How it is done:
BACE1 inhibition is also assessed in a cellular assay. HEKp293 cells transfected with APP751 gene (SWE293, American Type Culture Collection CRL-1563) are used to assess compounds for reduction in levels of Aβ peptide production. SWE293 cell medium is DMEM supplemented with 10% fetal bovine serum and 2 mM L-glutamine, 1.0 mM sodium pyruvate, 25 mM Hepes Buffer, 0.4 mg/mL geneticin (G418, Gibco BRL 860-181IIJ). Cells are maintained diluting 1:10 for 4 days in T-150 flask and 35 mL of cell media. For plating, cells are rinsed with 5 mL of 1×PBS, trypsinized with 4 mL of 0.05% Tripsin for 1 minute, and 12 mL of cell media is added. These are centrifuged at 1000 rpm for 4 minutes and the media aspirated, then 8 mL of media per flask is added. Based on cell count, appropriate amounts of cell and cell media are combined, and 180 μl per well are plated (96 well) and the plates are incubated overnight at 37° C., 5% CO2. Compounds to be tested are serially diluted 1:3 in DMSO and twice in media (without G418) in V-bottom plates and incubated at room temperature. Plated cells are washed with media, 3×50 μL per well and 17 μL per well of appropriate dilution of compound is added. Plates are incubated for 2 hours, and the wash steps, compound addition and incubation are repeated. Sample is transferred to capture plate (prepared with 266 antibody, see e.g. Johnson-Wood et al., PNAS February 1997, 94: 1550-1555), along with a standard curve of Aβ-40. ELISA assay is used to assess Aβ levels, washing with TBS, 0.05% Tween20 pH 7.5, then adding 1.3 mg/mL 3D6 antibody 1:900 in specimen diluents with thimericol is added (100 μl per well) and incubated for 1 hour. Wash step is repeated and Streptavidin-AP diluted 1:1000 in specimen diluents with thimerisol is added (100 μL per well) and incubated for 1 hour. Wash step is repeated and fluorescent substrate is added, 100 μL per well and incubated for 10 minutes followed by reading the fluorescent signal on a plate reader.
(In general: In an ELISA, binding on a coated surface is turned into a signal by an enzyme label.)

Another assay deals with Cathepsin D (Homo sapiens (Human), UniProt P07339). In words: Cathepsin D FP assay. The note with it: pH 4.5, read-out: CatD FP IC50. It is filed as biochemical. How it is done:
as §1

Assay [3] has as its target T1, BACE1. The experiment in a line: BACE1 AlphaScreen assay (displacement of biotinylated BACE1 binding site probe). The note with it: read-out: BACE1 AS IC50. The protocol: as §1
Background: In Alpha technology, singlet oxygen from a donor bead excites a nearby acceptor bead.

The mark [4] stands for this setting: dose at which Aβ level is reduced by 50%, HEKp293 SWE293 cells.

Where two headings read alike, the source gives them in different places.

T1 sequence (P56817 46-501): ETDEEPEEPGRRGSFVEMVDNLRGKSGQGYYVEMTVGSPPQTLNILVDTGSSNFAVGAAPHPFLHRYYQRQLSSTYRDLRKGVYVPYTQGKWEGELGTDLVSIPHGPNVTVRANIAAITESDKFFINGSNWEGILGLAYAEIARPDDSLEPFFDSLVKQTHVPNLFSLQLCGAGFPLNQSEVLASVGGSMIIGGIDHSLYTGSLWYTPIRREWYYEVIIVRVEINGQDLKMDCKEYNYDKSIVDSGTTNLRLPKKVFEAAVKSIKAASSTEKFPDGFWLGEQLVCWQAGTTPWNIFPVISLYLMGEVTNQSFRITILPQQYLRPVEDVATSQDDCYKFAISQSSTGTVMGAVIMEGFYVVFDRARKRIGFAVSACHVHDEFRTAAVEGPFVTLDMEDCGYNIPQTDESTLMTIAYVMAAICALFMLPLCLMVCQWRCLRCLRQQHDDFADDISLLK
Cathepsin D, sequence (P07339 65-412, species assumed): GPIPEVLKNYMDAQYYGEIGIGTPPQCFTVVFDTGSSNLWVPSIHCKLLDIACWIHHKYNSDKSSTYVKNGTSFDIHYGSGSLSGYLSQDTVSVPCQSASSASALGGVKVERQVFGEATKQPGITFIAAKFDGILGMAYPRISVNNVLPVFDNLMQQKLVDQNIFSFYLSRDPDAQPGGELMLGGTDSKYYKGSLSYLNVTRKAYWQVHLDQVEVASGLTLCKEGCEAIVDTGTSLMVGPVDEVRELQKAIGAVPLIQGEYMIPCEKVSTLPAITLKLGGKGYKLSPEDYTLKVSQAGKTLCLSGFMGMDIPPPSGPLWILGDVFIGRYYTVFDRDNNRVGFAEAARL

Consider `C[C@@]1(c2cc(NC(=O)c3ccc(F)cn3)ccc2F)CC2(COC2)SC(N)=N1` [Compound 9-146, (S)—N-(3-(6-amino-8-methyl-2-oxa-5-thia-7-azaspiro[3.5]non-6-en-8-yl)-4-fluorophenyl)-5-fluoropicolinamide], for which the IC50 on BACE1 [1] is 0.119 µM; in assay [2] (setting [4]), 0.022 µM; at Cathepsin D it was > 30 µM; at BACE1 [3], 0.0098 µM.

`CC#Cc1cncc(-c2csc([C@]3(C)CC4(CCOCC4)OC(N)=N3)c2)c1` [Compound 8-104, (S)-4-methyl-4-(4-(5-(prop-1-ynyl)pyridin-3-yl)thiophen-2-yl)-1,9-dioxa-3-azaspiro[5.5]undec-2-en-2-amine]: the IC50 was 0.406 µM on BACE1 [1], 0.157 µM in assay [2], 14.8 µM on Cathepsin D and 0.016 µM at BACE1 [3].

Consider `CC#Cc1cncc(-c2csc([C@@]3(C)CC4(CCOCC4)OC(N)=N3)c2)c1` [Compound 8-105, (R)-4-methyl-4-(4-(5-(prop-1-ynyl)pyridin-3-yl)thiophen-2-yl)-1,9-dioxa-3-azaspiro[5.5]undec-2-en-2-amine], for which the IC50 is 84.9 µM against BACE1 [1], 7.47 µM in assay [2], 5.25 µM at Cathepsin D and 1.33 µM at BACE1 [3].

Regarding `COc1cnc(C(=O)Nc2ccc(F)c(C3(C)N=C(N)OC4(CCC4)C3(F)F)c2)cn1` (stereo not drawn) [Compound 9-164, N-(3-(6-amino-9,9-difluoro-8-methyl-5-oxa-7-azaspiro[3.5]non-6-en-8-yl)-4-fluorophenyl)-5-methoxypyrazine-2-carboxamide], the IC50 in assay [2] (setting [4]) is 0.195 µM; at Cathepsin D, > 30 µM.

Turning to `C[C@@]1(c2cc(NC(=O)c3ccc(C#N)cn3)ccc2F)N=C(N)OC2(CCC2)C1(F)F` [Compound 9-163, (S)—N-(3-(6-amino-9,9-difluoro-8-methyl-5-oxa-7-azaspiro[3.5]non-6-en-8-yl)-4-fluorophenyl)-5-cyanopicolinamide], the IC50 is 38.1 µM on BACE1 [1], > 30 µM in assay [2] and 13.4 µM on BACE1 [3].

On to `C[C@@]1(c2cc(NC(=O)c3ccc(F)cn3)ccc2F)N=C(N)OC2(CCOCC2)C1(F)F` [Compound 9-156, (S)—N-(3-(2-amino-5,5-difluoro-4-methyl-1,9-dioxa-3-azaspiro[5.5]undec-2-en-4-yl)-4-fluorophenyl)-5-fluoropicolinamide], for which the IC50 (against BACE1 [1]; in assay [2]; on BACE1 [3]) was > 30 µM throughout.

Consider `C[C@@]1(c2cc(/C=C/c3ccc(Cl)cc3)ccc2F)CC2(CCC2)OC(N)=N1` [Compound 12-179, (S,E)-8-(5-(4-chlorostyryl)-2-fluorophenyl)-8-methyl-5-oxa-7-azaspiro[3.5]non-6-en-6-amine], for which the IC50 was found to be 4.64 µM against BACE1 [1], 1.34 µM in assay [2] (setting [4]) and 0.51 µM on BACE1 [3].

For `C[C@@]1(c2cc(NC(=O)C3CC3)ccc2F)CC2(CCC(F)(F)CC2)OC(N)=N1` [Compound 9-134, (S)—N-(3-(2-amino-9,9-difluoro-4-methyl-1-oxa-3-azaspiro[5.5]undec-2-en-4-yl)-4-fluorophenyl)cyclopropanecarboxamide], the IC50 was 2.33 µM against BACE1 [1], 0.882 µM in assay [2] (setting [4]) and 0.801 µM at BACE1 [3].

As for `C[C@]1(c2cc(NC(=O)c3ccc(Cl)cn3)ccc2F)CC2(CCOCC2)SC(N)=N1` [Compound 9-152, (R)—N-(3-(2-amino-4-methyl-9-oxa-1-thia-3-azaspiro[5.5]undec-2-en-4-yl)-4-fluorophenyl)-5-chloropicolinamide], the IC50 against BACE1 [1] was 1.56 µM; at Cathepsin D, 10.8 µM.

As for `C[C@@]1(c2cc(Nc3ncnc4cc(Cl)ccc34)ccc2F)CC2(CCC2)OC(N)=N1` [Compound 11-173, (S)-8-(5-(7-chloroquinazolin-4-ylamino)-2-fluorophenyl)-8-methyl-5-oxa-7-azaspiro[3.5]non-6-en-6-amine], the IC50 amounted to 8.55 µM against BACE1 [1] and 0.687 µM in assay [2] (setting [4]).

As for `CC1(c2cc(NC(=O)c3ccc(F)cn3)ccc2F)CC2(CCCCC2)SC(N)=N1` (stereo not drawn) [Compound 9-142, N-(3-(2-amino-4-methyl-1-thia-3-azaspiro[5.5]undec-2-en-4-yl)-4-fluorophenyl)-5-fluoropicolinamide], the IC50 in assay [2] (setting [4]) was 0.012 µM.

For the compound `C[C@@]1(c2cc(NC(=O)c3ccc(C(F)(F)F)cn3)ccc2F)CC2(CCC(F)(F)CC2)OC(N)=N1` [Compound 9-132, (S)—N-(3-(2-amino-9,9-difluoro-4-methyl-1-oxa-3-azaspiro[5.5]undec-2-en-4-yl)-4-fluorophenyl)-5-(trifluoromethyl)picolinamide], the IC50 in assay [2] was 0.011 µM; at BACE1 [3], 0.006 µM.

Take `C[C@]1(c2cc(NC(=O)c3ccc(F)cn3)ccc2F)CC2(CCOCC2)SC(N)=N1` [Compound 9-149, (R)—N-(3-(2-amino-4-methyl-9-oxa-1-thia-3-azaspiro[5.5]undec-2-en-4-yl)-4-fluorophenyl)-5-fluoropicolinamide]: the IC50 on BACE1 [1] is 8.49 µM; on Cathepsin D, 21.5 µM; on BACE1 [3], > 1 µM.

As for `C[C@@]1(c2cc(NCc3ccc(F)cn3)ccc2F)CC2(CCC2)OC(N)=N1` [Compound 10-169, (S)-8-(2-fluoro-5-((5-fluoropyridin-2-yl)methylamino)phenyl)-8-methyl-5-oxa-7-azaspiro[3.5]non-6-en-6-amine], the IC50 against BACE1 [1] is 179 µM; in assay [2], 5.61 µM; on BACE1 [3] it was 3.72 µM.

On to `C[C@@]1(c2cc(NC(=O)c3ccc(C4CC4)cn3)ccc2F)CC2(CCC(F)(F)CC2)OC(N)=N1` [Compound 9-137, (S)—N-(3-(2-amino-9,9-difluoro-4-methyl-1-oxa-3-azaspiro[5.5]undec-2-en-4-yl)-4-fluorophenyl)-5-cyclopropylpicolinamide], for which the IC50 turned out to be 1.83 µM against BACE1 [1], 0.088 µM in assay [2] (setting [4]) and 0.017 µM on BACE1 [3].

Regarding `COc1cc(Cl)ccc1C(=O)Nc1ccc(F)c([C@]2(C)CC3(CCC3)OC(N)=N2)c1` [Compound 9-140, (S)—N-(3-(6-amino-8-methyl-5-oxa-7-azaspiro[3.5]non-6-en-8-yl)-4-fluorophenyl)-4-chloro-2-methoxybenzamide], the IC50 was determined as 9.11 µM against BACE1 [1], 0.342 µM in assay [2] and 0.101 µM on BACE1 [3].

For the compound `C[C@@]1(c2cc(/C=C/c3ccc(F)cc3)ccc2F)CC2(CCC2)OC(N)=N1` [Compound 12-177, (S,E)-8-(2-fluoro-5-(4-fluorostyryl)phenyl)-8-methyl-5-oxa-7-azaspiro[3.5]non-6-en-6-amine], the IC50 came out at 21.7 µM against BACE1 [1], 1.21 µM in assay [2] and 1.16 µM at BACE1 [3].

For the compound `COc1cnc(C(=O)Nc2ccc(F)c([C@]3(C)CC4(CCOCC4)SC(N)=N3)c2)cn1` [Compound 9-153, (S)—N-(3-(2-amino-4-methyl-9-oxa-1-thia-3-azaspiro[5.5]undec-2-en-4-yl)-4-fluorophenyl)-5-methoxypyrazine-2-carboxamide], the IC50 at BACE1 [1] was 0.033 µM; in assay [2] (setting [4]), < 0.123 µM; on Cathepsin D it was > 30 µM.

`CC#Cc1cncc(-c2csc(C3(C)CC4(COC4)SC(N)=N3)c2)c1` (stereo not drawn) [Compound 8-112, 8-methyl-8-(4-(5-(prop-1-ynyl)pyridin-3-yl)thiophen-2-yl)-2-oxa-5-thia-7-azaspiro[3.5]non-6-en-6-amine]: the IC50 on BACE1 [1] turned out to be 0.227 µM; in assay [2] (setting [4]), 0.222 µM; on BACE1 [3] it was 0.017 µM.

Values taken from patent US9493485B2, “Spirocyclic dihydro-thiazine and dihydro-oxazine BACE inhibitors, and compositions and uses thereof” (Imago Pharmaceuticals, Inc., priority 2012, dated 2016).
